Assay [1] concerns acetylcholine-induced bronchoconstriction in guinea pigs. Put plainly: Effects on acetylcholine-induced bronchoconstriction in guinea pigs. It is filed as in vivo, guinea pig. Conditions: Cavia porcellus; 24 hours after 25 μg/kg of the compounds were administered; read-out: percentage of bronchoconstriction suppression with respect to the acetylcholine stimulation. As for the experimental part:
These in vivo assays are used to evaluate the bronchoprotective effects based on the M3 muscarinic receptor antagonist activity and the β2 adrenergic receptor agonist activity of test compounds. Hartley male guinea pigs (Nippon SLC, Inc.) weighing about 400-500 g were used. The animals were anesthetized by inhalation of Fluothane (Takeda Pharmaceutical Company Limited) in a plastic box. The test compounds were dissolved in physiological saline containing DMSO, and administered through the nasal cavity into the trachea at a dose of 0.04-25 μg/kg and at a volume of 0.4 mL/kg. For control animals, solvent without a test compound was administered. In general, animals awake several minutes after completion of the administration. The animals were anesthetized with an intraperitoneal administration of 33% urethane/0.8% α-chloralose at a dose of 3 mL/kg. In order to intravenously administer acetylcholine or histamine, a catheter was inserted into the carotid artery. In order to measure artificial respiration and airway ventilation pressure, a cannula was inserted into the trachea. Artificial respiration was applied to the animals at a volume of 10 mL/kg and at a frequency of 60/minute, using a ventilator (Harvard Apparatus). The airway ventilation pressure was measured by the Konzett-Roessler method using a general respiratory function analysis system (M.I.P.S). Prior to administration of acetylcholine or histamine, the airway ventilation pressure was measured and baseline values were recorded. Then, physiological saline was administered through the carotid artery catheter at a volume of 0.4 mL/kg, and the airway ventilation pressure was measured. Bronchoconstrictor response was induced by administering acetylcholine (40 μg/kg, 0.4 mL/kg) or histamine (15 μg/kg, 0.4 mL/kg) through the carotid artery catheter one hour after the administration of the test compounds, and the airway ventilation pressure at the maximum contractile response was recorded. In addition, in order to evaluate duration of action of the test compounds, the above-mentioned dose of acetylcholine or histamine was administered, 1 hour, 6 hours, 12 hours, 18 hours, and 24 hours after the administration of test compounds, and the airway ventilation pressure was measured in the same way. The percentage of suppression by the test compounds with respect to the airway contractile response was calculated according to the following formula. (%) Percentage of the airway constriction suppression=(Airway ventilation pressure of test compound-dosed and acetylcholine- or histamine-dosed animals−Baseline value)/(Airway ventilation pressure of acetylcholine- or histamine-dosed animals−Baseline value)×100
The 50% inhibitory doses (ID50 values) of the test compounds were analyzed by a sigmoidal logistic model using XLfit4 (IDBS, Ltd.) for the percentage of the bronchoconstriction suppression at different doses of the test compounds.

In assay [2] the target is T1, human β2 adrenergic receptor (Homo sapiens, UniProt P07550).
T1 construct: expressed in transfected cells; host or cells: CHO-K1
Put plainly: Whole-cell cAMP Flashplate assay using CHO-K1 cells stably expressing human β2 adrenergic receptor. It is filed as cell-based. Conditions: cAMP production. Background: Changes in cAMP serve as a functional read-out for many G protein-coupled receptors.

Assay [3] deals with T2, human M3 muscarinic receptor (Homo sapiens, UniProt P20309).
T2 construct: expressed in transfected cells; host or cells: CHO-K1
Put plainly: Inhibitory effect on methacholine-induced calcium influx, FLIPR assay, CHO-K1 cells stably expressing the human M3 muscarinic receptor. It is filed as cell-based. Particulars: inhibition of calcium influx induced by methacholine. Put shortly: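 Dye-loaded hM3 CHO-K1 cells were preincubated 180 s with compound solutions prepared at 10 two-fold concentrations (0.01–1000 nM). A 30 nM methacholine solution was then added. Fluorescence was traced for 170 s; max−min signal gave % inhibition against agonist and no-agonist controls, and IC50 came from a four-parameter logistic fit.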

Structures can show the parent of a compound that is named as a salt.

T1 sequence (P07550 whole entry): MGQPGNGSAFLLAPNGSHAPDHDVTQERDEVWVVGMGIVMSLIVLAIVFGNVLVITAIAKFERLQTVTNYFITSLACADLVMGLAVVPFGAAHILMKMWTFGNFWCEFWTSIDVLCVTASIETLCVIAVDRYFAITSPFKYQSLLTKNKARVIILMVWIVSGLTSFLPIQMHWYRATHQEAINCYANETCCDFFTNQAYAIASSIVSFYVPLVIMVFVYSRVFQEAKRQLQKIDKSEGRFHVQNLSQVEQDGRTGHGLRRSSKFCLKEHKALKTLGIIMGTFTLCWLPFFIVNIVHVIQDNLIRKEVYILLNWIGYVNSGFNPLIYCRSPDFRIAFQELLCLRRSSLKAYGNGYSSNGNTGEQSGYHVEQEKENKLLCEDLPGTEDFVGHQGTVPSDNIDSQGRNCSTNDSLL
T2 sequence (P20309 whole entry): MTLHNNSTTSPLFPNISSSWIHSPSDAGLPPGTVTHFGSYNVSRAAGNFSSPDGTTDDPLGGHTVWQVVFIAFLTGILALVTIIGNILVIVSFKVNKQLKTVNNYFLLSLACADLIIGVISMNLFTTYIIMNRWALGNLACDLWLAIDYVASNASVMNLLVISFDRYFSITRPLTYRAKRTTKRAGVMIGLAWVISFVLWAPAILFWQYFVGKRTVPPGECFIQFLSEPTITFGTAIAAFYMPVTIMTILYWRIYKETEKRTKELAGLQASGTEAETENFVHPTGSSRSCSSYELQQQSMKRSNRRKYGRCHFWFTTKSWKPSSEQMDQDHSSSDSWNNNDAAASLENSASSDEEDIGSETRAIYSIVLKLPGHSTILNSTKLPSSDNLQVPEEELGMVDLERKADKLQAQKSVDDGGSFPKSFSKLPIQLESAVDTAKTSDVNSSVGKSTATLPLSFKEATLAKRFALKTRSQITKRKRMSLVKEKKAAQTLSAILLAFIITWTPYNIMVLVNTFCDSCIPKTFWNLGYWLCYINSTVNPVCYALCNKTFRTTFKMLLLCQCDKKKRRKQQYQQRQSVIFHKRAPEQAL

In the case of `COc1cc(NC(=O)CCc2ccc(-c3ccccc3)c(NC(=O)OC3CC[N+](C)(C)CC3)c2)c(Cl)cc1CNC[C@H](O)c1ccc(O)c2[nH]c(=O)ccc12` [Example 2, 4-({[5-(2-{[2-chloro-4-({[(2R)-2-hydroxy-2-(8-hydroxy-2-oxo-1,2-dihydroquinolin-5-yl)ethyl]amino}methyl)-5-methoxyphenyl]carbamoyl}ethyl)-2-phenylphenyl]carbamoyl}oxy)-1,1-dimethylpiperidin-1-ium trifluoroacetate], the inhibition in vivo at 0.025 mg/kg in assay [1] was no less than 50%. Moreover, the EC50 – broadly, the concentration at which the effect is half-maximal – in assay [2] worked out at 1.1 nM. For the same compound, in assay [3], the IC50 (in general, the point on the concentration scale where inhibition reaches its midpoint) amounted to 19.3 nM.

Consider `COc1cc(NC(=O)CCc2ccc(-c3ccccc3)c(NC(=O)OC3CC[N+](C)(C)CC3)c2)ccc1CNC[C@H](O)c1ccc(O)c2[nH]c(=O)ccc12` [Example 6, 4-({[5-(2-{[4-({[(2R)-2-hydroxy-2-(8-hydroxy-2-oxo-1,2-dihydroquinolin-5-yl)ethyl]amino}methyl)-3-methoxyphenyl]carbamoyl}ethyl)-2-phenylphenyl]carbamoyl}oxy)-1,1-dimethylpiperidin-1-ium trifluoroacetate], for which the inhibition in vivo at 0.025 mg/kg in assay [1] is no less than 50%. Further, the midpoint of the response in assay [2], the EC50, lay at 1.7 nM. The 50% inhibitory concentration (IC50) in assay [3] turned out to be 9 nM.

As to `C[N+]1(C)CCC(OC(=O)Nc2cc(CCC(=O)Nc3ccc4cc(CNC[C@H](O)c5ccc(O)c6[nH]c(=O)ccc56)ccc4c3)ccc2-c2ccccc2)CC1` [Example 12, 4-({[5-(2-{[6-({[(2R)-2-hydroxy-2-(8-hydroxy-2-oxo-1,2-dihydroquinolin-5-yl)ethyl]amino}methyl)naphthalen-2-yl]carbamoyl}ethyl)-2-phenylphenyl]carbamoyl}oxy)-1,1-dimethylpiperidin-1-ium trifluoroacetate], the inhibition in vivo at 0.025 mg/kg in assay [1] is no less than 50%. Further, the EC50 in assay [2] turned out to be 4.6 nM. Besides, the half-maximal inhibitory concentration (IC50) in assay [3] worked out at 26.4 nM.

On to `COc1cc(NC(=O)CCCc2ccc(-c3ccccc3)c(NC(=O)OC3CC[N+](C)(C)CC3)c2)c(Cl)cc1CNC[C@H](O)c1ccc(O)c2[nH]c(=O)ccc12` [Example 18, 4-({[5-(3-{[2-chloro-4-({[(2R)-2-hydroxy-2-(8-hydroxy-2-oxo-1,2-dihydroquinolin-5-yl)ethyl]amino}methyl)-5-methoxyphenyl]carbamoyl}propyl)-2-phenylphenyl]carbamoyl}oxy)-1,1-dimethylpiperidin-1-ium trifluoroacetate], for which the inhibition in vivo at 0.025 mg/kg in assay [1] is no less than 50%. This compound also had a half-maximal effective concentration (EC50) in assay [2] of 0.6 nM. In addition, the IC50 in assay [3] is 8.9 nM.

Regarding `C[N+]1(C)CCC(OC(=O)Nc2cc(CCCC(=O)Nc3ccc(CNC[C@H](O)c4ccc(O)c5[nH]c(=O)ccc45)cc3Cl)ccc2-c2ccccc2)CC1` [Example 19, 4-({[5-(3-{[2-chloro-4-({[(2R)-2-hydroxy-2-(8-hydroxy-2-oxo-1,2-dihydroquinolin-5-yl)ethyl]amino}methyl)phenyl]carbamoyl}propyl)-2-phenylphenyl]carbamoyl}oxy)-1,1-dimethylpiperidin-1-ium trifluoroacetate], the inhibition in vivo at 0.025 mg/kg in assay [1] was no less than 50%. In assay [2], this compound displayed an EC50 of 1.2 nM. For the same compound, the IC50 in assay [3] was found to be 8.7 nM.

`COc1cc(NC(=O)CCCc2ccc(-c3ccccc3)c(NC(=O)OC3CC[N+](C)(C)CC3)c2)ccc1CNC[C@H](O)c1ccc(O)c2[nH]c(=O)ccc12` [Example 20, 4-({[5-(3-{[4-({[(2R)-2-hydroxy-2-(8-hydroxy-2-oxo-1,2-dihydroquinolin-5-yl)ethyl]amino}methyl)-3-methoxyphenyl]carbamoyl}propyl)-2-phenylphenyl]carbamoyl}oxy)-1,1-dimethylpiperidin-1-ium trifluoroacetate]: the inhibition in vivo at 0.025 mg/kg in assay [1] is no less than 50%. For the same compound, the concentration giving a half-maximal response (EC50) in assay [2] stood at 2.6 nM. In assay [3], the concentration for half-maximal inhibition (IC50) came to 16.8 nM.

Regarding `COc1cc(NC(=O)CCCc2ccc(-c3ccccc3)c(NC(=O)OC3CC[N+](C)(C)CC3)c2)c(Br)cc1CNC[C@H](O)c1ccc(O)c2[nH]c(=O)ccc12` [Example 25, 4-({[5-(3-{[2-bromo-4-({[(2R)-2-hydroxy-2-(8-hydroxy-2-oxo-1,2-dihydroquinolin-5-yl)ethyl]amino}methyl)-5-methoxyphenyl]carbamoyl}propyl)-2-phenylphenyl]carbamoyl}oxy)-1,1-dimethylpiperidin-1-ium trifluoroacetate], the inhibition in vivo at 0.025 mg/kg in assay [1] is no less than 50%. In assay [2], this compound displayed a 50% effective concentration (EC50) of 0.4 nM. Also, in assay [3], the half-maximal inhibitory concentration (IC50) was determined as 19 nM.

Compound `C[N+]1(C)[C@@H]2C[C@@H](OC(=O)Nc3ccc(CCCC(=O)Nc4ccc(CNC[C@H](O)c5ccc(O)c6[nH]c(=O)ccc56)cc4Br)cc3-c3ccccc3)C[C@H]1[C@@H]1O[C@@H]12` [Example 72, (1R,2R,4S,5S,7S)-7-({[4-(3-{[2-bromo-4-({[(2R)-2-hydroxy-2-(8-hydroxy-2-oxo-1,2-dihydroquinolin-5-yl)ethyl]amino}methyl)phenyl]carbamoyl}propyl)-2-phenylphenyl]carbamoyl}oxy)-9,9-dimethyl-3-oxa-9-azatricyclo[3.3.1.0^2,4]nonan-9-ium trifluoroacetate] yielded an EC50 in assay [2] of 0.3 nM. Besides, the concentration for half-maximal inhibition (IC50) in assay [3] came to 49 nM.

Consider `C[N+]1(C)[C@@H]2CC(OC(=O)Nc3cc(CCC(=O)Nc4ccc(CCCNC[C@H](O)c5ccc(O)c6[nH]c(=O)ccc56)cc4)ccc3-c3ccccc3)C[C@H]1[C@@H]1O[C@@H]12` (stereo partly drawn) [Example 73, (1R,2R,4S,5S,7S)-7-({[5-(2-{[4-(3-{[(2R)-2-hydroxy-2-(8-hydroxy-2-oxo-1,2-dihydroquinolin-5-yl)ethyl]amino}propyl)phenyl]carbamoyl}ethyl)-2-phenylphenyl]carbamoyl}oxy)-9,9-dimethyl-3-oxa-9-azatricyclo[3.3.1.0^2,4]nonan-9-ium trifluoroacetate], for which the midpoint of the response in assay [2], the EC50, lay at 10 nM. Further, the 50% inhibitory concentration (IC50) in assay [3] stood at 27.5 nM.

For `C[N+]1(C)CCC(OC(=O)Nc2cc(CCCCCCCCCNC[C@H](O)c3ccc(O)c4[nH]c(=O)ccc34)ccc2-c2ccccc2)CC1` [Example 76, 4-({[5-(9-{[(2R)-2-hydroxy-2-(8-hydroxy-2-oxo-1,2-dihydroquinolin-5-yl)ethyl]amino}nonyl)-2-phenylphenyl]carbamoyl}oxy)-1,1-dimethylpiperidin-1-ium trifluoroacetate], the EC50 in assay [2] came to 14.1 nM. Besides, the IC50 in assay [3] came to 38 nM.

Regarding `C[N+]1(C)CCC(OC(=O)Nc2cc(CCCOCCCCCNC[C@H](O)c3ccc(O)c4[nH]c(=O)ccc34)ccc2-c2ccccc2)CC1` [Example 78, 4-{[(5-{3-[(5-{[(2R)-2-hydroxy-2-(8-hydroxy-2-oxo-1,2-dihydroquinolin-5-yl)ethyl]amino}pentyl)oxy]propyl}-2-phenylphenyl)carbamoyl]oxy}-1,1-dimethylpiperidin-1-ium trifluoroacetate], a half-maximal response in assay [2] (EC50) required 1.3 nM. Moreover, the half-maximal inhibitory concentration (IC50) in assay [3] turned out to be 74.1 nM.

In assay [2], `C[N+]1(C)CCC(OC(=O)Nc2cc(CCNC(=O)c3ccc(CNC[C@H](O)c4ccc(O)c5[nH]c(=O)ccc45)cc3)ccc2-c2ccccc2)CC1` [Example 80, 4-({[5-(2-{[4-({[(2R)-2-hydroxy-2-(8-hydroxy-2-oxo-1,2-dihydroquinolin-5-yl)ethyl]amino}methyl)phenyl]formamide}ethyl)-2-phenylphenyl]carbamoyl}oxy)-1,1-dimethylpiperidin-1-ium trifluoro acetate] displayed a concentration for a half-maximal effect (EC50) of 2.4 nM. In assay [3], the IC50 worked out at 29.9 nM.

The compound `C[N+]1(C)CCC(OC(=O)Nc2cc(CNC(=O)COc3ccc(CNC[C@H](O)c4ccc(O)c5[nH]c(=O)ccc45)cc3)ccc2-c2ccccc2)CC1` [Example 81, 4-({[5-({2-[4-({[(2R)-2-hydroxy-2-(8-hydroxy-2-oxo-1,2-dihydroquinolin-5-yl)ethyl]amino}methyl)phenoxy]acetamide}methyl)-2-phenylphenyl]carbamoyl}oxy)-1,1-dimethylpiperidin-1-ium trifluoroacetate] showed a concentration for a half-maximal effect (EC50) in assay [2] of 8.7 nM. In addition, the 50% inhibitory concentration (IC50) in assay [3] was 25.1 nM.
